Data set [1] relates to PC12 cells. Briefly: Cell death induced by peroxynitrite generating SIN-1 (MTT). The format is cell-based, Rat. Particulars: MTT reduction assay. On the procedure:
(§1) The MTT assay is a sensitive measurement of the normal metabolic status of cells, particularly that of mitochondria, which reflects early cellular redox changes. After incubation, cells were treated with the MTT solution (final concentration, 1 mg/ml) for 2 h. The dark blue formazan crystals formed in intact cells were dissolved in DMSO, and absorbance at 570 nm was measured with a microplate reader. Results were expressed as the percentage (%) of MTT reduction, assuming that the absorbance of control cells was 100%.
(Tetrazolium dyes change colour on reduction, which living cells bring about.)

For data set [2] the following is noted: Fowl; cited from earlier work.
Data set [3] deals with PC12 cells. Briefly: Lipid peroxidation (MDA, BIOXYTECH LPO-586). The following applies: Aβ25-35-treated PC12 cells; pretreatment for 30 min. In kind it is cell-based, Rat. The procedure:
The extent of lipid peroxidation in PC12 cells treated with Aβ25-35 was assessed using the commercially available calorimetric assay kit BIOXYTECH LPO-586 (OXIS Research, Portland, Oreg.). After exposure to 50 μM Aβ25-35 in the presence or absence of L-ergothioneine at 37° C. for 24 h, PC12 cells were harvested and homogenized in 20 mM Tris-HCl buffer (pH 7.4), containing 0.5 mM butylated hydroxytoluene to prevent sample oxidation. After centrifugation, 3.25 volumes of diluted R1 reagent (10.3 mM N-methyl-2-phenylindole in acetonitrile) was added to the supernatant, followed by gentle vortex mixing following the addition of 0.75 ml of 37% (v/v) HCl, the mixtures were incubated at 45° C. for 60 min. After cooling and centrifugation, the absorbance of the clear supernatant was read at 590 nm. The protein concentration was determined using the BCA protein assay kit.

Data set [4] concerns PC12 cells. In words: MTT dye reduction assay, Aβ25-35-induced cytotoxicity. The format is cell-based, Rat. The following applies: 1 mM EGT, added 30 min prior to Aβ25-35; 36 h. The procedure:
(§2) PC12 cells were maintained in DMEM supplemented with 10% heat-inactivated horse serum and 5% fetal bovine serum at 37° C. in a humidified atmosphere of 10% CO2/90% air. All cells were cultured in poly-D-lysine coated culture dishes. The medium was changed every other day, and cells were plated at an appropriate density according to each experimental scale. After 24 h subculture, cells were switched to serum-free N-2 defined medium for treatment. For determination of cell viability, PC12 cells were initially plated at a density of 4×10^4 cells/300 μl in 48-well plates, and the cell viability was determined by the conventional MTT reduction and the lactate dehydrogenase (LDH) release assay as described below.
as §1

Data set [5] relates to PARP. In words: Western blot, Aβ25-35-induced cleavage of PARP. In kind it is cell-based, Rat. Particulars: 25 μM Aβ25-35, 36 h. The procedure:
(§3) After treatment, cells (1×10^7 cells/7 ml in 100φ dish) were collected and washed with PBS. After centrifugation, cell lysis was carried out at 4° C. by vigorous shaking for 15 min in RIPA buffer (150 mM NaCl, 1% NP-40, 0.5% sodium deoxycholate, 0.1% SDS, 50 mM Tris-HCl (pH 7.4), 50 mM glycerphosphate, 20 mM NaF, 20 mM EGTA, 1 mM DTT, 1 mM Na3VO4 and protease inhibitors). After centrifugation at 15,000 rpm for 15 min, supernatant was separated and stored at −70° C. until use. The protein concentration was determined by using the bicinchrinic acid (BCA) protein assay kit (Pierce, Rockford, Ill., USA). After addition of sample loading buffer, protein samples were electrophoresed on a 12.5% SDS-polyacrylamide gel. Proteins were transferred to polyvinylidene difluoride blots at 300 mA for 3 h. The blots were blocked for 1 h at room temperature in fresh blocking buffer (0.1% Tween-20 in Tris-buffered saline, pH 7.4 containing 5% non-fat dried milk). Dilutions (1:1000) of primary anti-poly(ADP-ribose)polymerase (PARP), anti-Bcl-XL and anti-Bax antibodies were made in PBS with 3% non-fat dry milk. Following three washes with PBST (PBS and 0.1% Tween-20), the blots were incubated with horseradish peroxidase-conjugated secondary antibodies in PBS with 3% non-fat dry milk for 1 h at room temperature. […]
In general terms: In western blotting, separated proteins are transferred to a membrane and probed.

For data set [6] the following is noted: Dog; cited from earlier work.
The subject of data set [7] is Bax and Bcl-XL. In words: Western blot, levels of Bax and Bcl-XL. In kind it is cell-based, Rat. Particulars: 25 μM Aβ25-35, 36 h. On the procedure:
as §3

For data set [8] the following is noted: Rat; cited from earlier work.
Data set [9] relates to peroxynitrite. Briefly: Intracellular peroxynitrite formation (DHR123 fluorescence). Particulars: 25 μM Aβ25-35, 36 h; L-ergothioneine present in the media. The format is cell-based, Rat. The procedure:
To monitor intracellular formation of peroxynitrite, the fluorescent probe DHR123 was used. DHR123 is lipophilic and readily diffuses across cell membranes. Upon oxidation of DHR to fluorescent rhodamine, one of the two covalent amino groups tautomerizes to a changed imino, effectively trapping rhodamine within cells. DHR is not oxidized by nitric oxide (NO) but peroxynitrite effectively oxidizes it. After treatment with Aβ25-35 (25 μM) for 36 h in the presence or absence of L-ergothioneine, cells (1×10^4 cells/1 ml in 4-well chamber slide) were rinsed with saline A, and 10 μM DHR in saline A containing 5% fetal bovine serum was loaded. After 20 min incubation at 37 C, cells were examined under a confocal microscope equipped with an argon laser (488 nm; 200 mW). To quntitate peroxynitrite generation in response to Aβ25-35, total peroxynitrite production (basal+incease) was divided by basal peroxynitrite generation. Changes in fluorescence intensity are expressed as a percentage of the control.

For data set [10], the system named is PC12 cells. Briefly: LDH release assay, Aβ25-35-treated PC12 cells. The following applies: 25 μM Aβ25-35-treated PC12 cells. The format is cell-based, Rat. On the procedure: as §2
This assay measures the leakage of the soluble cytoplasmic LDH enzyme into the extracellular medium due to cell lysis. PC12 cells were plated at the same density as for the MTT assay described above. The amount of lactate was measured by monitoring the oxidation of L-lactic acid by NAD^+ in the presence of LDH to pyruvate. The culture media were transferred to 96-well plate and incubated with 1 mg/ml β-NAD^+ in pyruvate substrate solution at 37° C. for 30 min. […] The changes in absorbance were determined at 450 nm using a spectrophotometric microplate reader.
(LDH leaks from cells whose membrane has failed.)

Molecules are shown by their SMILES. Where two headings read alike, the source gives them in different places.

Turning to `C[N+](C)(C)[C@@H](Cc1c[nH]c(=S)[nH]1)C(=O)[O-]` [L-ergothioneine, 2-mercaptohistidine trimethylbetaine], in data set [1], the “cytotoxicity induced by the peroxynitrite releasing compound SIN-1” value is listed as “selectively protected”. For the same compound, the “L-Ergothioneine Concentration (mg/100 ml blood)” value in data set [2] was 2-10 mg/100 ml blood; in data set [6], 3-6 mg/100 ml blood; in [8], 1-6 mg/100 ml blood. The lipid peroxidation entry in [3] is reported as “concentration dependent inhibition”. In data set [4], the “cytotoxic effect of Aβ25-35 (MTT reduction)” value was “inhibited”. For the same compound, the “cleavage of PARP” value in data set [5] was “inhibited”. Also, the “ratio of Bax to Bcl-XL” value in [7] is “substantially reduced”. The intracellular peroxynitrite formation entry in data set [9] is “significantly reduced”. For the same compound, the LDH release result in [10] is “reduce the LDH release”.

(Values after patent US20080107603A1, “Neuroprotectant methods, compositions, and screening methods thereof” (priority 2002, published 2008).)
